Reference: article PMC10017821, “Polycystic kidney disease 2-like 1 channel contributes to the bitter aftertaste perception of quinine” (Scientific Reports, 2023)

Target: T1, PKD2L1 (polycystic kidney disease 2-like 1 channel) (Mus musculus, UniProt A2A259)
T1 construct: mouse PKD2L1 in pCINeo/IRES-GFP, transiently expressed in HEK293T cells; no PKD1L3 co-expression mentioned; homotetramer (known biology)
T1 sequence (A2A259 1-760): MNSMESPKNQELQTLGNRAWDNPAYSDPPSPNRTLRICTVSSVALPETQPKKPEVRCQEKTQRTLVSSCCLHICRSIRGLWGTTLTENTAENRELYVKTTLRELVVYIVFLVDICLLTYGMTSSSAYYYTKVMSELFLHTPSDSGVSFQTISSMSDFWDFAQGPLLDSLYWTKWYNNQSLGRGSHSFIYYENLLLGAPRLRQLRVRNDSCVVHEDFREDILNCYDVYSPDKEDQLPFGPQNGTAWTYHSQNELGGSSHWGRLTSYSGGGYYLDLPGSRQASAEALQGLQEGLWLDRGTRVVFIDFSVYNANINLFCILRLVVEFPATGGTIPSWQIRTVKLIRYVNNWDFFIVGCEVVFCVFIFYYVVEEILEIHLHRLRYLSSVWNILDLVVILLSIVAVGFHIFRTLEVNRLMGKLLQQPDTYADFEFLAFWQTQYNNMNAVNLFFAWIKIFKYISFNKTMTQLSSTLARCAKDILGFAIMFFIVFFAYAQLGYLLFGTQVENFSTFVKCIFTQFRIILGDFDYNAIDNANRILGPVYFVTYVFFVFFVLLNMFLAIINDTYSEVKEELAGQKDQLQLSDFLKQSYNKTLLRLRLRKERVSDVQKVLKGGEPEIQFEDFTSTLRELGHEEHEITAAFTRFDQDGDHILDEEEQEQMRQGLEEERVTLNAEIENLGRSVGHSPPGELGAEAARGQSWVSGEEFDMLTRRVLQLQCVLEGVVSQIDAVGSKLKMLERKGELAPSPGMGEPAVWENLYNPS
Experiment: whole-cell patch clamp, channel activity (NPo) at -60 mV
Type: cell-based

C=C[C@H]1C[N@@]2CC[C@H]1C[C@H]2[C@H](O)c1ccnc2ccc(OC)cc12 [quinine]
EC50: 33 µM
